PMC6630837 (Pharmaceuticals, 2019)
Entries after “also recorded” stand apart in the source; their conditions may differ.

Assays:
[1] = LogD7.4 determination (octan-1-ol/phosphate buffer, LC-MS); type: physicochemical; conditions: octan-1-ol/phosphate buffer, pH 7.4, octan-1-ol/phosphate buffer pH 7.4, 25 °C; read-out: Log D7.4 (partition coefficient at pH 7.4)
Method: LogD7.4 determination. The in-silico prediction tool ALOGPS [4] was used to estimate the octanol-water partition coefficients (log P) of the compounds. […] For each category, two different ratios (volume of octan-1-ol to volume of buffer) were defined as experimental parameters (Table 2).
Equal amounts of phosphate buffer (0.1 M, pH 7.4) and octan-1-ol were mixed and shaken vigorously for 5 min to saturate the phases. The mixture was left until separation of the two phases, and the buffer was retrieved. Stock solutions of the test compounds were diluted with buffer to a concentration of 1 μM. For each compound, three determinations per octan-1-ol:buffer ratio were performed in different wells of a 96-well plate. The respective volumes of buffer-containing analyte (1 μM) were pipetted to the wells and covered by saturated octan-1-ol according to the chosen volume ratio. […] The aqueous phase was transferred to a 96-well plate for analysis by liquid chromatography-mass spectrometry (LCMS, see below).
Results are presented as the mean ± SD of three independent experiments.
LC-MS measurements. […] The system was controlled with the Agilent MassHunter Workstation Data Acquisition software (version B.01.04). The column used was an AtlantisR T3 C18 column (2.1 × 50 mm) with a 3 μm-particle size (Waters Corp., Milford, MA, USA). The mobile phase consisted of eluent A: 10 mM ammonium acetate, pH 5.0 in 95:5, H2O:MeCN; and eluent B: MeCN containing 0.1% formic acid. The flow rate was maintained at 0.6 mL/min. […] MS parameters such as fragmentor voltage, collision energy, and polarity were optimized individually for each drug, and the molecular ion was followed for each compound in the multiple reaction monitoring mode. The concentrations of the analytes were quantified by the Agilent Mass Hunter Quantitative Analysis software (version B.01.04).

[2] = Cell viability (MTT) assay in Caco-2 cells; type: cell-based, human; conditions: human; Caco-2 cells, 0.1 μM to 100 μM; read-out: IC50 (cytotoxicity)
Method: (§1) Cell viability assay in human epithelial colorectal adenocarcinoma (Caco-2) and human liver hepatocellular (HepG2) cells. Caco-2 and HepG2 Cells were cultured in DMEM-Dulbecco’s modified Eagle’s medium (Sigma-Aldrich) supplemented with 10% (v/v) inactivated fetal bovine serum (PAA Laboratories GmbH), 2 mM L-glutamine (Sigma-Aldrich), 100 U/mL penicillin and 100 μg/mL streptomycin (Sigma-Aldrich), in a humidified incubator at 37 °C with a 5% CO2 atmosphere. Cells (3 × 10^4 cells/well) were seeded into 96-well plates and incubated at 37 °C in 5% CO2 atmosphere. After 24 h, compounds were added at different concentrations (0.1–100 μM) and incubated in the same conditions. DMSO controls were performed to evaluate a possible solvent cytotoxicity, while pure DMSO was used as a cytotoxic drug. After the established incubation time with compounds, MTT (5 mg/mL) in PBS (Sigma-Aldrich) was added (10 μL) to each well. After 3 h incubation at 37 °C, in 5% CO2, the supernatant was removed. The formazan crystals were solubilized using ethanol/DMSO (1:1) (100 μL), and the absorbance values were determined at 570 nm on the microplate reader Victor3 from PerkinElmer Life Sciences.

[3] = test system: human epithelial colorectal adenocarcinoma (Caco-2) cells; test: Cell viability (MTT) assay in Caco-2 cells; type: cell-based; conditions: at 100 μM
Method: as §1

[4] = test system: SH-SY5Y human neuroblastoma cells; test: Neuroprotection against Aβ1-42-induced toxicity, MTT cell viability assay; type: cell-based; conditions: 50 μM compound, 20 μM Aβ1-42, 24 h, 37 °C
Method: Neuroprotective activity assays against Aβ1-42-induced toxicity. From all compounds tested in the above presented assay, the pair 8 and 19 presented the strongest neuroprotective potential, with convincing proof on the importance of the aglycone for the desired neuroprotective effects against H2O2-induced cell injury. […] Here, the MTT assay was used once again to assess cell viability of SH-SY5Y cells treated with 20 μM of Aβ1-42, in the presence of 50 μM of each compound. Similar protocols have been used to screen candidates for AD therapy. Moreover, based on the existing evidence that in situ spontaneous fibrillization of Aβ1-42 in the incubation mixture is important in the triggering of neurotoxic effects, we added the Aβ1-42 peptide fragment dissolved in DMSO to the culture medium prior to incubation, together with each compound in study. […] Even though there is published evidence that undifferentiated SH-SY5Y cells are not as sensitive to Aβ1-42-induced neurite degeneration and apoptosis as differentiated ones, with 20 μM of Aβ1-42 we were able to observe a significant decrease in cellular MTT reduction capacity, corresponding to roughly half of the cell viability rates observed in the non-treated control.
Neuroprotective assays in human neuroblastoma (SH-SY5Y) cells. […] Differences were considered significant when P < 0.05.

[5] = Cell viability (MTT) assay in HepG2 cells; type: cell-based, human; conditions: human; HepG2 cells, 0.1 μM to 100 μM; read-out: IC50 (cytotoxicity)
Method: as §1

[6] = test system: human liver hepatocellular (HepG2) cells; test: Cell viability (MTT) assay in HepG2 cells; type: cell-based; conditions: at 100 μM
Method: as §1

O=c1cc(-c2ccc(N3CCOCC3)cc2)oc2c([C@@H]3O[C@H](CO)[C@@H](O)[C@H](O)[C@H]3O)c(O)cc(O)c12 [Compound 19, 8-(β-D-Glucopyranosyl)-5,7-dihydroxy-4′-(morpholin-4-yl)flavone]
logD [1]: 1.8 ± 0.2 | IC50 [2]: ≥ 100 µM | Cytotoxicity towards Caco-2 cells [3]: did not show any cytotoxicity | Neuroprotective effect against Aβ1-42-induced toxicity (MTT cell viability) [4]: the result with the highest significance when compared to controls; also recorded: the result with the highest significance when compared to the controls | Neuroprotective effect against Aβ1-42-induced toxicity (MTT cell viability) ([4]; listed as 37): fully rescued | IC50 [5]: ≥ 100 µM | Cytotoxicity towards HepG2 cells [6]: did not show any cytotoxicity
